Data reported in patent US10512667B2, “Compositions and methods for treating conditions related to adrenocortical activity and/or excessive steroid production” (The Regents of the University of Michigan, priority 2017, dated 2019).
“Also recorded” adds a separate entry of the source.

Tests used:
[1] = test system: H295R cells; assay: Cortisol secretion (indirect ELISA); assay type: cell-based
[2] = test system: adrenal cortex; settings: in vivo; cited from earlier work
[3] = test system: ACAT; settings: cited from earlier work
[4] = test system: guinea pig adrenal glands; settings: cited from earlier work
[5] = test system: H295R cells; assay: Cholesterol crystallization and extracellular cholesterol associated with cells; assay type: cell-based
Description: To quantify cholesterol crystallization, experiments were conducted that measured the total extracellular cholesterol that was associated with the cells. After culturing cells with the indicated compounds, the culture medium was removed. Medium lacking cholesterol was added to the cells, and the extracellular cholesterol that was released into the wash medium was collected after 30 seconds. To establish if the cholesterol that was released from the cells was exported by ABCA1, the wash step was performed in parallel using media with and without 50 μM glibenclamide, which inhibits ABCA1 activity. The total amount of cell-associated cholesterol that was released into the wash medium was measured using a fluorometric enzyme-linked assay (Cayman Chemical). Cholesterol esters were hydrolyzed using cholesterol esterase. Cholesterol was oxidized by cholesterol oxidase, producing hydrogen peroxide. The hydrogen peroxide was reacted with 10-acetyl-3,7-dihydroxyphenoxazine (ADHP) in the presence of horseradish peroxidase to produce resorufin. Resorufin fluorescence was measured using 555 nm exitation and 590 nm emission wavelengths in a SpectraMax M5 microplate reader (Molecular Devices).
The medium was removed and replaced with 50 μl serum-free medium supplemented with 5 μg/mL apo-AI (without or with 50 μM glyburide to detect ABCA1 transporter-dependent efflux) for either 30 sec or 1 h at 37 C in 5% CO2 atmosphere. After the indicated time, the supernatant, was transferred to a new 96-well plate and a fluorometric-base cholesterol detection assay cocktail was added.

[6] = test system: IDOL; assay: Transcript measurement by qPCR in H295R cells; assay type: cell-based; settings: within an hour after addition
Description: (§1) mRNA was isolated (Qiagen), and was reverse transcribed using the Transcriptor First Strand cDNA synthesis kit (Roche). The relative amounts of cDNAs corresponding to the indicated transcripts were quantified using qPCR assays with specific primers (Table 2).
(§2) H295R cells were seeded in 6-well tissue culture plates (Corning #3506) at a density of 5 X105 per well. After 48 h, the compound(s) indicated were added, and the cells were cultured for the indicated time. The cells were harvested in 1.35 ml culture medium with trypsin. The cells were collected by centrifugation and lysed in 350 μl of RLT buffer (Qiagen) with β-mercaptoethanol. mRNA extraction and DNase treatment were performed according to the manufacturer's protocol (Qiagen). All RNA samples had 260/280 ratios greater than 1.5. The same amount of RNA ranging from 0.1 to 0.5 μg was used for reverse transcription using the Roche Transcriptor First Strand cDNA synthesis kit (Roche #04897030001) using the manufacturer's protocol. SYBR Green I-based real-time qPCR assays were performed using a Roche LightCycler480 instrument. The levels of transcripts in different samples were normalized by the levels of RPL9 transcripts.

[7] = test system: HSD3B2; assay: Transcript measurement by qPCR in H295R cells; assay type: cell-based; settings: H295R cells cultured with ATR-101
Description: as §1, §2

[8] = test system: H295R cells; assay: Visualization of cholesterol levels by filipin III binding; assay type: cell-based; settings: H295R cells; for cholesterol level / accumulation (filipin III binding), compound alone: serum-containing medium
How it was run: (§3)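 Cells adhered 48 h, treated with compounds, fixed in 4% paraformaldehyde 20 min, then stained with 100 μg/ml filipin III for 2 h at 37 C in the dark and imaged. Esterification visualized after 2 h culture with 1 μM NBD-cholesterol following compound incubation.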

[9] = test system: BD140C cells; assay: as above; assay type: cell-based; settings: 4 h
How it was run: as §3

[10] = test system: H295R cells; assay: Cellular ATP level (CellTiter-Glo);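 further: ATP quantified by luminescence after lysing the cells in CellTiter-Glo reagent, with compound exposure at 37 °C under 5% CO2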
Description: (§4) The ATP levels of cells were measured by lysis in CellTiter-Glo reagent (Promega), and measurement of the luminescence.
(§5) After 48 h, 20-80 μl of medium was removed from each well and replaced with 20 μl of each compound diluted to 6× of the final concentration in the culture medium to produce a final volume of 120 μl. The cells were incubated at 37 C in 5% CO2 atmosphere for a time ranging from 15 min to 24 h. The medium was removed and immediately replaced with 50 μl of CellTiter-Glo luminescence cell viability assay reagent (Promega). The cells were lysed by agitation at room temperature for 20 min in the dark. The luminescence was measured using a SpectraMax M5 microplate reader (Molecular Devices) with a 0.5 s acquisition time. The luminescence (RLU) values for control cells ranged from 5000 to 20000 RLU in all experiments, and were scaled by a factor of 0.001 to plot all graphs.

[11] = test system: H295R cells; assay: Cholesterol efflux into serum-free medium with apoA1; assay type: cell-based; settings: serum-free medium containing apoA-I, 4 h
Description: Cholesterol efflux was measured by replacing the culture medium with serum-free medium supplemented with 5 μg/ml apoA1 (Sigma) and the indicated compounds. After the indicated time, the serum-free medium was collected, and the cholesterol concentration was measured using the fluorometric enzyme-linked assay (Cayman Chemical).
After 48 h, the medium was removed and replaced with 50 μl serum-free medium supplemented with 5 μg/mL apoA1. After the indicated time, the supernatant containing the effluxed cholesterol, was transferred to a new 96-well plate. A cholesterol detection reagent (Cayman Chemical) consisting of cholesterol assay buffer, cholesterol assay detector (10-acetyl-3,7-dihydroxyphenoxazine [ADHP]), horseradish peroxidase, cholesterol oxidase, and cholesterol esterase was added, and the reactions were incubated for 30 min at 37 C. The fluorescence intensities were measured using ex. […] 590 nm. The cholesterol concentrations were calculated by interpolation between the values produced by cholesterol standards that were analyzed in parallel.

[12] = test system: H295R cells; assay: Cell morphology by phase contrast microscopy; assay type: cell-based; settings: 30 h, phase contrast, hydrochloride
Description: FIG. 4E: […] The cells were cultured with DMSO vehicle (upper images) or with 40 μM ATR-101 (lower images) alone (left images), or in combination with 1.5 mM MβCD (middle images), or in combination with 40 μM cholesterol (right images). Cell morphology was visualized by phase contrast microscopy using a 10× objective. The images are representative of 5 fields under each set of culture conditions. The scale bars denote 100 μm.

[13] = test system: BD140C cells; assay: Cellular ATP level (CellTiter-Glo); assay type: cell-based
Description: as §4, §5

CC(C)c1cccc(C(C)C)c1NC(=O)NCC1(c2ccc(N(C)C)cc2)CCCC1.Cl [ATR-101, N-(2,6-bis(1-methylethyl)phenyl)-N′-((1-(4-(dimethylamino)phenyl)cyclopentyl)methyl)urea hydrochloride]
basal and forskolin-stimulated cortisol secretion ([1]; 100 μM ATR-101, with or without 100 μM forskolin): blocked both basal and forskolin-stimulated cortisol secretion | cortisol secretion, compound alone ([1]; cortisol in medium, 4 h or time course, hydrochloride): inhibited cortisol secretion | adrenalytic activity [2]: has adrenalytic activity | ACAT activity [3]: inhibit ACAT activity | increase of the cholesterol level of adrenal glands ([4]; after 24 hours): 3 fold | onset of rise of the cholesterol level of adrenal glands ([4]; after ATR-101 administration): rises within an hour | cholesterol crystallization at the plasma membrane, compound alone ([5]; 40 μM ATR-101, 24 h, hydrochloride): associated with crystals that emanated from the cell membrane; also recorded: cholesterol crystallization at the plasma membrane | total extracellular cholesterol associated with cells ([5]; 4 h, 100 μM ATR-101 or 40 μM cholesterol): increased the total extracellular cholesterol | IDOL transcript level [6]: reduced | HSD3B2 transcript level [7]: reduced | cholesterol level / accumulation (filipin III binding), compound alone ([8]; 24 h): increase in intracellular cholesterol | cholesterol level / accumulation (filipin III binding), compound alone ([8]; up to 4 h, hydrochloride): caused cholesterol accumulation in or near the plasma membrane; also recorded: increase in cholesterol accumulation in the plasma membrane; also recorded: higher levels of filipin III binding to the plasma membrane | cholesterol level (filipin III binding), compound alone ([8]; serum-free medium containing apoA-I, 4 h, hydrochloride): increased the level of cholesterol in intracellular membranes; also recorded: increased the cholesterol levels; also recorded: higher cholesterol levels | cholesterol level / accumulation (filipin III binding), compound alone [9]: caused cholesterol accumulation in or near the plasma membrane | concentration required for ATP depletion and caspase activation relative to the concentration that inhibited cholesterol esterification ([10]; ACC-derived cells, 4 h): more than two orders of magnitude higher | time after ATR-101 addition at which ATP depletion was detected ([10]; H295R cells, 100 μM ATR-101): 30 min | fold lower concentration that reduced the ATP level in combination than required separately ([10]; H295R cells, ATR-101 and rhodamine-123 in combination, 4 h): 10 fold | ATP level, compound alone ([10]; H295R cells, serum-containing medium, 4 h): reduced the ATP level | ATP level, compound alone ([10]; H295R cells, serum-containing medium, 24 h): reduced the ATP levels | ATP level, compound alone ([10]; H295R cells, serum-free medium, 4 h): caused ATP depletion | cholesterol efflux, compound alone [11]: inhibited cholesterol efflux | cell morphology, compound alone [12]: small, rounded and weakly attached to the plate | ATP level, compound alone ([13]; 4 h): reduced the ATP level | ATP level, compound alone ([13]; 24 h): reduced the ATP levels
